Seven compounds from patent publication US9981930B1, “MAGL inhibitors” (ABIDE THERAPEUTICS, INC., priority 2016, dated 2018) can be followed below.

Each structure is given as a SMILES string. pIC50: −log10 of the molar value.

The target of one assay is T1, MAGL (Mus musculus, UniProt O35678).
T1 construct: from tissue; host or cells: brain of wild-type C57Bl/6J mice
T1 sequence (O35678 1-303): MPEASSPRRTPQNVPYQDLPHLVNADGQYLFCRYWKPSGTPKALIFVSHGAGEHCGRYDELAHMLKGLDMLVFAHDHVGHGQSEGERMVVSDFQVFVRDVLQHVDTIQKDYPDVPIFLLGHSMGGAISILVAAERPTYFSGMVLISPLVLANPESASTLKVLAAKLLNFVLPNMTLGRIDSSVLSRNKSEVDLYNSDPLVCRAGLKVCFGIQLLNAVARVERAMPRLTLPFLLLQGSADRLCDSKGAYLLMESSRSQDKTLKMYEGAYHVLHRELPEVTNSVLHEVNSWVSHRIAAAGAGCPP
Briefly: Mouse brain proteomes from inhibitor treated mice (ex vivo activity-based protein profiling after oral gavage). Format: in vivo. Conditions: 5 mg/kg oral gavage, C57Bl/6J mice, brain proteomes 4 h following administration. The procedure:
Proteomes (mouse brain membrane fraction or cell lysates) (50 μL, 1.0 mg/mL total protein concentration) were preincubated with varying concentrations of inhibitors at 37° C. After 30 min, FP-Rh (1.0 μL, 50 μM in DMSO) was added and the mixture was incubated for another 30 min at 37° C. Reactions were quenched with SDS loading buffer (50 μL-4×) and run on SDS-PAGE. Following gel imaging, serine hydrolase activity was determined by measuring fluorescent intensity of gel bands corresponding to MAGL using ImageJ 1.49k software.
Preparation of Mouse Brain Proteomes from Inhibitor Treated Mice.

Another assay deals with T2, MAGL Human (Homo sapiens, UniProt Q99685).
T2 construct: Proteomes (human prefrontal cortex or cell membrane fractions); from tissue; host or cells: human prefrontal cortex or cell membrane fractions
T2 sequence (Q99685 1-303): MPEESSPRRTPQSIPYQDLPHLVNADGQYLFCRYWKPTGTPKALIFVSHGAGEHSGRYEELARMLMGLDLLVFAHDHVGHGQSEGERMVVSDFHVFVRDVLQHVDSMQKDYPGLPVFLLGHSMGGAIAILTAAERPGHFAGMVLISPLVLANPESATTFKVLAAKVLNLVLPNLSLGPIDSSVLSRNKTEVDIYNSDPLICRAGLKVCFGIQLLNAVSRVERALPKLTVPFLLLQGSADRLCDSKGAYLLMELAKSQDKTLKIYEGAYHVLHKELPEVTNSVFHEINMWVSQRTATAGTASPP
Nature of the assay: In vitro competitive activity-based protein profiling (human). Format: biochemical. Conditions: human prefrontal cortex or cell membrane fractions; 30 min preincubation at 37° C.; FP-Rh or JW912 probe. The procedure:
In Vitro Competitive Activity-Based Protein Profiling (Human).
Proteomes (human prefrontal cortex or cell membrane fractions) (50 μL, 1.0-2.0 mg/mL total protein concentration) were preincubated with varying concentrations of inhibitors at 37° C. After 30 min, FP-Rh or JW912 (1.0 μL, 50 μM in DMSO) was added and the mixture was incubated for another 30 min at room temperature. Reactions were quenched with SDS loading buffer (15 μL-4×) and run on SDS-PAGE. Following gel imaging, serine hydrolase activity was determined by measuring fluorescent intensity of gel bands corresponding to MAGL using ImageJ 1.49k software.

In the case of `O=C(O)CCCNc1cc(C(F)(F)F)ccc1CN1CCN(C(=O)OC(C(F)(F)F)C(F)(F)F)CC1` [Example 1, 4-((2-((4-(((1,1,1,3,3,3-Hexafluoropropan-2-yl)oxy)carbonyl)piperazin-1-yl)methyl)-5-(trifluoromethyl)phenyl)amino)butanoic acid], the inhibition (commonly the relative decrease from the control value, in per cent) at 5 mg/kg on MAGL was over 75%. The pIC50 (as a rule, the negative decadic logarithm of the IC50, by convention in mol/L) at MAGL Human is over 7.00.
For `C[C@H](Nc1cc(C(F)(F)F)ccc1CN1CCN(C(=O)OC(C(F)(F)F)C(F)(F)F)CC1)C(=O)O` [Example 7, (2-((4-(((1,1,1,3,3,3-hexafluoropropan-2-yl)oxy)carbonyl)piperazin-1-yl)methyl)-5-(trifluoromethyl)phenyl)-L-alanine] the same measures were 25 to 75% and over 7.00.
On MAGL Human, `O=C(O)CCNc1cc(Cl)ccc1CN1CCN(C(=O)OC(C(F)(F)F)C(F)(F)F)CC1` [Example 5, 3-((5-Chloro-2-((4-(((1,1,1,3,3,3-hexafluoropropan-2-yl)oxy)carbonyl)piperazin-1-yl)methyl)phenyl)amino)propanoic acid] gave a pIC50 of over 7.00.
`O=C(O)CCNc1cc(C(F)(F)F)ccc1CN1CCN(C(=O)OC(C(F)(F)F)C(F)(F)F)CC1` [Example 4, 3-((2-((4-(((1,1,1,3,3,3-Hexafluoropropan-2-yl)oxy)carbonyl)piperazin-1-yl)methyl)-5-(trifluoromethyl)phenyl)amino)propanoic acid] displayed an inhibition at 5 mg/kg on MAGL of over 75%. Also, the pIC50 at MAGL Human is over 7.00.
At MAGL Human, `O=C(O)CNc1cc(C(F)(F)F)ccc1CN1CCN(C(=O)OC(C(F)(F)F)C(F)(F)F)CC1` [Example 6, (2-((4-(((1,1,1,3,3,3-Hexafluoropropan-2-yl)oxy)carbonyl)piperazin-1-yl)methyl)-5-(trifluoromethyl)phenyl)glycine] showed a pIC50 of over 7.00.
In the case of `O=C(O)CCCNc1cc(Cl)ccc1CN1CCN(C(=O)OC(C(F)(F)F)C(F)(F)F)CC1` [Example 2, 4-((5-Chloro-2-((4-(((1,1,1,3,3,3-hexafluoropropan-2-yl)oxy)carbonyl)piperazin-1-yl)methyl)phenyl)amino)butanoic acid], the inhibition at 5 mg/kg at MAGL lay in the range of 25 to 75%. On MAGL Human, this compound showed a pIC50 of over 7.00.
For `O=C(O)CNc1cc(Cl)ccc1CN1CCN(C(=O)OC(C(F)(F)F)C(F)(F)F)CC1` [Example 3, (5-Chloro-2-((4-(((1,1,1,3,3,3-hexafluoropropan-2-yl)oxy)carbonyl)piperazin-1-yl)methyl)phenyl)glycine] the same measures were 25 to 75% and over 7.00.
